Laboratory results as given in patent US11382956B2, “Amylin analogues” (Zealand Pharma A/S, priority 2016, dated 2022).
Numbered stars: 1 amine (or outer) side, 2 acyl side, 3 side chain; on linkers, the order of the positions; unused ones are H or OH. Bridge positions count the residues as written; N and C are the ends. Square brackets hold non-standard residues; d marks the D form. Peptide text beside a SMILES is read from it. * marks the point of attachment. C20 diacid = O=C(O)CCCCCCCCCCCCCCCCCCC(=O)*; γGlu = O=C(O)[C@H](CCC(=O)[*:2])N[*:1]; Hyp = O=C(O)[C@@H]1C[C@@H](O)CN1; NMeI = CC[C@H](C)[C@H](NC)C(=O)O; Aad = N[C@@H](CCCC(=O)O)C(=O)O; Orn = NCCC[C@H](N)C(=O)O; Sar = CNCC(=O)O

What was measured:
[1] = target: T1, recombinant human calcitonin receptor (hCT-R) (Homo sapiens, UniProt P30988); assay: hCT-R cAMP assay (AlphaScreen) in 1321N1 cells; format: cell-based; conditions: cAMP formation, 45 min stimulation
T1 construct: host or cells: human astrocytoma cell line 1321N1
T1 sequence (P30988 25-474): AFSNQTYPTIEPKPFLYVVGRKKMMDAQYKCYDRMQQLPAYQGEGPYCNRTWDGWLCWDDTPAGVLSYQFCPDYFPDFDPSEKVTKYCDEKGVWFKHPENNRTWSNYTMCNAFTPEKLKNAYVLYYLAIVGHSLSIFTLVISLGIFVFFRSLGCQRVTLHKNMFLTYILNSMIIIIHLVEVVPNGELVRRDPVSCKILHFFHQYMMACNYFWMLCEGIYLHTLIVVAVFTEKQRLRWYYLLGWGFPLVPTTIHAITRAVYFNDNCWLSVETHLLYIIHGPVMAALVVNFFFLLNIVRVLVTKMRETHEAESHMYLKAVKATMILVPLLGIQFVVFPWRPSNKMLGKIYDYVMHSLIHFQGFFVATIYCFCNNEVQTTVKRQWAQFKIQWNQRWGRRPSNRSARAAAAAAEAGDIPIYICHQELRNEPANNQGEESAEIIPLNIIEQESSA
Outline: (§1)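 EC50 values come from curve fits over at least 7 peptide concentrations, with cAMP read by AlphaScreen competition after 1 h in the dark. Cells were 1321N1 lines carrying human calcitonin receptor, with RAMP3 co-expressed for AMY3, treated 45 min at room temperature in the presence of IBMX.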

[2] = target: T2, recombinant human amylin 3 receptor (hAMYR3) (Homo sapiens, UniProt O60896+P30988); assay: hAMYR3 cAMP assay (AlphaScreen) in 1321N1 cells; format: cell-based; conditions: cAMP formation, 45 min stimulation
T2 construct: host or cells: human astrocytoma cell line 1321N1
T2 sequence (P30988 25-474): T1 sequence (P30988 25-474)
T2 sequence (O60896 24-148 partner): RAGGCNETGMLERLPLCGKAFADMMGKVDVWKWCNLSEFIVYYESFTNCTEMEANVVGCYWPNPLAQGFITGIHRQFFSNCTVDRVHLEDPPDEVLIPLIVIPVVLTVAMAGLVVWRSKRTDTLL
Outline: as §1

[3] = Assessment of chemical stability in 40 mM buffers at 40° C. (RP-HPLC); format: physicochemical; conditions: 1 mg/mL; for % degradation after 72 h at 40° C. pH4 acetate: acetate buffer pH 4, 72 h; for % degradation after 72 h at 40° C. pH6 phosphate: phosphate buffer pH 6, 72 h; for % degradation after 72 h at 40° C. pH7 phosphate: phosphate buffer pH 7, 72 h
Outline: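 Degradation is the main-peak area-% at each time point minus that at t=0, measured by C8 reversed-phase HPLC (TFA/acetonitrile/water gradient, 220 nm). Incubation at 40° C for 3 or 14 days, 1 mg/mL peptide in 40 mM buffer at pH 4, 6 or 7.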

[4] = Effect on acute food intake and body weight in normal Sprague Dawley rats; format: in vivo, Sprague Dawley (SD) rats; conditions: Dose: 30 nmol/kg sc, vehicle-corrected
From the text: Sprague Dawley (SD) rats were obtained from Janvier Labs, France. The animals arrived at least 14 days before the study start to allow acclimatization to experimental conditions. From arrival and throughout the study, the rats were housed in groups of 2 to 4 (n=2-4) in a light-, temperature- and humidity-controlled room. Animals had access ad libitum to food (KLIBA 3430, Provimi Kliba AG, Switzerland) and water (domestic quality tap water) during the entire study. Per group 6-8 rats were included. A vehicle group and positive control group were included in each set of tests. […] Dosing volume was 2 ml/kg. Food intake was recorded online using an automated food intake system (HM02, MBRose, Denmark) for 4 days or manually at 0 h for a predose and then 24, 48, 72 and 96 h post dosing. Body weight was measured daily.
Statistical analyses were performed using GraphPad™ Prism version 7. The measured parameters were compared using two-way ANOVA followed by Dunnett's multiple comparison tests. Differences were considered statistically significant at p<0.05.

[5] = Assessment of physical stability: fibril formation by Thioflavin T fluorescence; format: physicochemical; set-up: key: FND = fibrillation not detected; FD = fibrillation detected; conditions: 1 mg/mL peptide; for Fibrillation (in buffer) pH4 acetate: 50 mM acetate buffer pH 4.0, 96 hours at 40° C.; for Fibrillation (in buffer) pH7 histidine: 50 mM histidine buffer pH 7.0, 96 hours at 40° C.; for Fibrillation (in buffer) pH7 phosphate: 50 mM phosphate buffer pH 7.0, 96 hours at 40° C.
Outline: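 Fibrillation detected (FD) means a significant rise in ThT fluorescence over 96 hours at 40° C, read at 10 min intervals each preceded by 300 s automixing. Samples: 1 mg/mL peptide, 40 μM ThT, in 50 mM phosphate or histidine (pH 7.0) or acetate (pH 4.0), triplicate.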

| SMILES | EC50 [1] [nM] | EC50 [2] [nM] | % degradation after 14 days at 40° C. pH6 phosphate ([3]; phosphate buffer pH 6, 14 days) [%] | Body weight reduction in % at 48 h [4] [%] | Food intake reduction in % at 48 h [4] [%] | Fibrillation (in buffer) pH4 acetate [5] | Fibrillation (in buffer) pH7 histidine [5] | Fibrillation (in buffer) pH7 phosphate [5] | % degradation after 72 h at 40° C. pH4 acetate [3] [%] | % degradation after 72 h at 40° C. pH6 phosphate [3] [%] | % degradation after 72 h at 40° C. pH7 phosphate [3] [%] |
| --- | --- | --- | --- | --- | --- | --- | --- | --- | --- | --- | --- |
| CC[C@H](C)[C@@H](C(=O)N[C@@H](CC(C)C)C(=O)N[C@@H](CO)C(=O)N[C@@H](CO)C(=O)N[C@H](C(=O)N[C@@H](CCC(=O)O)C(=O)N[C@H](C(=O)NCC(=O)N[C@@H](CO)C(=O)N[C@@H](CC(N)=O)C(=O)N[C@H](C(=O)N1C[C@H](O)C[C@H]1C(N)=O)[C@@H](C)O)C(C)C)[C@@H](C)O)N(C)C(=O)[C@H](C)NC(=O)CN(C)C(=O)[C@H](Cc1ccccc1)NC(=O)[C@H](CO)NC(=O)[C@H](CO)NC(=O)[C@H](CCCNC(=N)N)NC(=O)[C@H](CCC(N)=O)NC(=O)[C@H](CC(C)C)NC(=O)[C@H](Cc1ccccc1)NC(=O)[C@H](Cc1c[nH]cn1)NC(=O)[C@H](C)NC(=O)[C@H](CC(C)C)NC(=O)[C@H](CCCNC(=N)N)NC(=O)[C@H](CCC(N)=O)NC(=O)[C@@H](NC(=O)[C@H](C)NC(=O)[C@@H]1CCCCNC(=O)C[C@H](NC(=O)[C@H](CCCNC(=N)N)NC(=O)CC[C@H](NC(=O)CCCCCCCCCCCCCCCCCCC(=O)O)C(=O)O)C(=O)NCC(=O)N[C@@H]([C@@H](C)O)C(=O)N[C@@H](C)C(=O)N[C@@H]([C@@H](C)O)C(=O)N1)[C@@H](C)O [Compound 16, [19CD]-isoGlu-RD()GTATK()ATQRLAHFLQRSSF-Gly(Me)-A-Ile(Me)-LSSTEVGSNT-Hyp-NH2] ({C20 diacid-γGlu}-RDGTATKATQRLAHFLQRSSF[Sar]A[NMeI]LSSTEVGSNT[Hyp]-NH2; lactam 2-7) | 0.043 | 0.035 | <1 | 7.4 | 66 |  |  |  |  |  |  |
| CC[C@H](C)[C@@H](C(=O)N[C@@H](CC(C)C)C(=O)N[C@@H](CO)C(=O)N[C@@H](CO)C(=O)N[C@H](C(=O)N[C@@H](CCC(=O)O)C(=O)N[C@H](C(=O)NCC(=O)N[C@@H](CO)C(=O)N[C@@H](CC(N)=O)C(=O)N[C@H](C(=O)N1C[C@H](O)C[C@H]1C(N)=O)[C@@H](C)O)C(C)C)[C@@H](C)O)N(C)C(=O)[C@H](C)NC(=O)CN(C)C(=O)[C@H](Cc1ccccc1)NC(=O)[C@H](CO)NC(=O)[C@H](CO)NC(=O)[C@H](CCCNC(=N)N)NC(=O)[C@H](CCC(N)=O)NC(=O)[C@H](CC(C)C)NC(=O)[C@H](Cc1ccccc1)NC(=O)[C@H](Cc1c[nH]cn1)NC(=O)[C@H](C)NC(=O)[C@H](CC(C)C)NC(=O)[C@H](CCCNC(=N)N)NC(=O)[C@H](CCC(N)=O)NC(=O)[C@@H](NC(=O)[C@H](C)NC(=O)[C@@H]1CCCNC(=O)C[C@H](NC(=O)[C@H](CCCNC(=N)N)NC(=O)CC[C@H](NC(=O)CCCCCCCCCCCCCCCCCCC(=O)O)C(=O)O)C(=O)NCC(=O)N[C@@H]([C@@H](C)O)C(=O)N[C@@H](C)C(=O)N[C@@H]([C@@H](C)O)C(=O)N1)[C@@H](C)O [Compound 8, [19CD]-isoGlu-RD()GTAT-Orn()-ATQRLAHFLQRSSF-Gly(Me)-A-Ile(Me)-LSSTEVGSNT-Hyp-NH2] ({C20 diacid-γGlu}-RDGTAT[Orn]ATQRLAHFLQRSSF[Sar]A[NMeI]LSSTEVGSNT[Hyp]-NH2; lactam 2-7) | 0.129 | 0.059 |  |  |  | FND | FND | FND | <1 | <1 | <1 |
| CC[C@H](C)[C@@H](C(=O)N1CCC[C@H]1C(=O)N[C@@H](CO)C(=O)N[C@@H](CO)C(=O)N[C@H](C(=O)N[C@@H](CCC(=O)O)C(=O)N[C@H](C(=O)NCC(=O)N[C@@H](CO)C(=O)N[C@@H](CC(N)=O)C(=O)N[C@H](C(=O)N1C[C@H](O)C[C@H]1C(N)=O)[C@@H](C)O)C(C)C)[C@@H](C)O)N(C)C(=O)[C@H](C)NC(=O)CN(C)C(=O)[C@H](Cc1ccccc1)NC(=O)[C@H](CO)NC(=O)[C@H](CO)NC(=O)[C@H](CCCNC(=N)N)NC(=O)[C@H](CCC(N)=O)NC(=O)[C@H](CC(C)C)NC(=O)[C@H](Cc1ccccc1)NC(=O)[C@H](CCCC(=O)O)NC(=O)[C@H](C)NC(=O)[C@H](CC(C)C)NC(=O)[C@H](CCCNC(=N)N)NC(=O)[C@H](CCC(=O)O)NC(=O)[C@@H](NC(=O)[C@H](C)NC(=O)[C@@H]1CCCCNC(=O)C[C@H](NC(=O)[C@H](CCCNC(=N)N)NC(=O)CC[C@H](NC(=O)CCCCCCCCCCCCCCCCCCC(=O)O)C(=O)O)C(=O)NCC(=O)N[C@@H]([C@@H](C)O)C(=O)N[C@@H](C)C(=O)N[C@@H]([C@@H](C)O)C(=O)N1)[C@@H](C)O [Compound 34, [19CD]-isoGlu-RD()GTATK()ATERLA-Aad-FLQRSSF-Gly(Me)-A-Ile(Me)-PSSTEVGSNT-Hyp-NH2] ({C20 diacid-γGlu}-RDGTATKATERLA[Aad]FLQRSSF[Sar]A[NMeI]PSSTEVGSNT[Hyp]-NH2; lactam 2-7) | 0.206 | 0.063 |  |  |  | FND | FND | FND | <1 | <1 | 2.8 |
| CC[C@H](C)[C@@H](C(=O)N[C@@H](CC(C)C)C(=O)N[C@@H](CO)C(=O)N[C@@H](CO)C(=O)N[C@H](C(=O)N[C@@H](CCC(=O)O)C(=O)N[C@H](C(=O)NCC(=O)N[C@@H](CO)C(=O)N[C@@H](CC(N)=O)C(=O)N[C@H](C(=O)N1C[C@H](O)C[C@H]1C(N)=O)[C@@H](C)O)C(C)C)[C@@H](C)O)N(C)C(=O)[C@H](C)NC(=O)CN(C)C(=O)[C@H](Cc1ccccc1)NC(=O)[C@@H](NC(=O)CNC(=O)[C@H](CCCNC(=N)N)NC(=O)[C@H](CCC(N)=O)NC(=O)[C@H](CC(C)C)NC(=O)[C@H](Cc1ccccc1)NC(=O)[C@H](CCCC(=O)O)NC(=O)[C@H](C)NC(=O)[C@H](CC(C)C)NC(=O)[C@H](CCCNC(=N)N)NC(=O)[C@H](CCC(=O)O)NC(=O)[C@@H](NC(=O)[C@H](C)NC(=O)[C@@H]1CCCNC(=O)C[C@H](NC(=O)[C@H](CCCNC(=N)N)NC(=O)CC[C@H](NC(=O)CCCCCCCCCCCCCCCCCCC(=O)O)C(=O)O)C(=O)NCC(=O)N[C@@H]([C@@H](C)O)C(=O)N[C@@H](C)C(=O)N[C@@H]([C@@H](C)O)C(=O)N1)[C@@H](C)O)[C@@H](C)O [Compound 27, [19CD]-isoGlu-RD()GTAT-Orn()-ATERLA-Aad-FLQRGTF-Gly(Me)-A-Ile(Me)-LSSTEVGSNT-Hyp-NH2] ({C20 diacid-γGlu}-RDGTAT[Orn]ATERLA[Aad]FLQRGTF[Sar]A[NMeI]LSSTEVGSNT[Hyp]-NH2; lactam 2-7) | 0.521 | 0.325 |  |  |  | FND | FND | FND | <1 | <1 | 1.7 |
